# Where “and” joins values, the source holds several entries; their conditions need not be identical. Identical values can stand only once.
# Tests used:
# Experiment in all cases: ≥ marks a high value that may be exact or a test limit, other limits are often not marked, values filed in µg/mL are converted to µM
# [1] = system: Salmonella typhimurium KCTC 1926
# [2] = system: Staphylococcus epidermidis KCTC 1917
# [3] = system: Staphylococcus aureus CCARM 3095
# [4] = system: Pseudomonas aeruginosa CCARM 2095
# [5] = system: Escherichia coli KCTC 1682
# [6] = system: Bacillus subtilis KCTC 3068
# [7] = system: Pseudomonas aeruginosa KCTC 1637
# [8] = system: Staphylococcus aureus CCARM 3090
# [9] = system: Staphylococcus aureus CCARM 3089
# [10] = system: Staphylococcus aureus KCTC 1621
# [11] = system: Enterococcus faecium ATCC 51559
# [12] = system: Pseudomonas aeruginosa Ps4
# [13] = system: Enterobacter cloacae ATCC 49141
# [14] = system: Candida albicans ATCC 90028
# [15] = system: Staphylococcus aureus USA 100
# [16] = system: Enterococcus faecalis ATCC 19433
# [17] = system: Staphylococcus aureus USA 300
# [18] = system: Pseudomonas aeruginosa ATCC 9027
# [19] = system: Streptococcus pyogenes ATCC 49399
# [20] = system: Klebsiella aerogenes ATCC 35029
# Bacillus megaterium Bm11 = system: Bacillus megaterium Bm11
# [21] = system: Staphylococcus aureus ATCC 6538P
# [22] = system: Pseudomonas aeruginosa ATCC 27853
# [23] = system: Pseudomonas aeruginosa PAO1
# [24] = system: Escherichia coli ATCC 25922
# [25] = system: Salmonella enterica subsp. enterica serovar Pullorum C79-13
# [26] = system: Staphylococcus aureus ATCC 29213
# Escherichia coli UB1005 = system: Escherichia coli UB1005
# [27] = system: Staphylococcus epidermidis ATCC 12228
# [28] = system: Staphylococcus aureus ATCC 43300
# [29] = system: Bacillus subtilis CMCC 63501
# [30] = system: Salmonella typhimurium ATCC 7731
# [31] = system: Staphylococcus aureus ATCC 25923
# Escherichia coli C25 = system: Escherichia coli C25
# [32] = system: Acinetobacter baumannii KCTC 2508
# [33] = system: Bacillus subtilis KCTC 2217
smiles,measurement,setting,value
CC[C@H](C)[C@H](NC(=O)[C@@H](NC(=O)[C@H](Cc1cnc[nH]1)NC(=O)[C@H](CCCN=C(N)N)NC(=O)[C@H](C)NC(=O)[C@H](CCCN=C(N)N)NC(=O)[C@H](CC(C)C)NC(=O)[C@H](CO)NC(=O)[C@H](C)NC(=O)[C@H](CC(C)C)NC(=O)[C@@H](N)CC(N)=O)[C@@H](C)O)C(=O)N1CCC[C@H]1C(=O)N[C@@H](CCC(N)=O)C(=O)N[C@@H](CCCN=C(N)N)C(=O)N[C@@H](CCCCN)C(=O)N[C@@H](Cc1ccccc1)C(=O)NCC(=O)N[C@@H](CCCN=C(N)N)C(=O)N[C@@H](CCCN=C(N)N)C(=O)O [NLASLRARHTIPQRKFGRR],MIC,[1],6.3 µM
same,MIC,[2],6.3 µM
same,MIC,[3],25 µM
same,MIC,[4],25 µM
same,MIC,[5],6.3 µM
same,MIC,[6],6.3 µM
same,MIC,[7],6.3 µM
same,MIC,[8],25 µM
same,MIC,[9],12.5 µM
same,MIC,[10],12.5 µM
same,MIC,[11],≥ 50 µM
CC[C@H](C)[C@H](NC(=O)[C@H](CCCN=C(N)N)NC(=O)[C@@H](NC(=O)[C@H](CCCN=C(N)N)NC(=O)[C@H](Cc1c[nH]c2ccccc12)NC(=O)[C@H](Cc1ccccc1)NC(=O)[C@@H]1CCCN1)[C@@H](C)CC)C(=O)N[C@@H](CCCN=C(N)N)C(=O)N[C@@H](CCCN=C(N)N)C(N)=O [PFWRIRIRR],MIC,[12],≥ 48.1 µM
same,MIC,[13],≥ 40 µM
same,MIC,[14],≥ 100 µM
same,MIC,[15],12.5 µM
same,MIC,[16],≥ 40 µM
same,MIC,[17],12.5 µM
same,MIC,[18],100 µM
same,MIC,[19],2.5 µM
same,MIC,[20],≥ 40 µM
same,MIC,Bacillus megaterium Bm11,1.25 µM
same,MIC,[21],≥ 40 µM
same,MIC,[22],40 µM
same,MIC,[23],24.6 µM
same,MIC,[24],8.71 µM and 10 µM
CC(C)C[C@H](NC(=O)[C@H](CCCCN)NC(=O)[C@H](CCCCN)NC(=O)[C@H](C)NC(=O)[C@@H](NC(=O)[C@H](CCCCN)NC(=O)[C@H](CO)NC(=O)[C@H](CC(C)C)NC(=O)[C@H](Cc1c[nH]c2ccccc12)NC(=O)[C@H](CC(C)C)NC(=O)[C@H](CCCCN)NC(=O)[C@H](CCCCN)NC(=O)[C@H](C)NC(=O)[C@@H](NC(=O)[C@H](CCCCN)NC(=O)[C@H](CO)NC(=O)[C@H](CC(C)C)NC(=O)[C@H](Cc1c[nH]c2ccccc12)NC(=O)[C@H](CC(C)C)NC(=O)[C@H](CCCCN)NC(=O)[C@H](CCCCN)NC(=O)[C@H](C)NC(=O)[C@@H](NC(=O)[C@H](CCCCN)NC(=O)[C@H](CO)NC(=O)[C@H](CC(C)C)NC(=O)[C@@H](N)Cc1c[nH]c2ccccc12)[C@@H](C)O)[C@@H](C)O)[C@@H](C)O)C(N)=O [WLSKTAKKLWLSKTAKKLWLSKTAKKL],MIC,[25],2 µM
same,MIC,[26],32 µM
same,MIC,Escherichia coli UB1005,2 µM
same,MIC,[27],32 µM
same,MIC,[28],32 µM
same,MIC,[29],8 µM
same,MIC,[30],8 µM
same,MIC,[22],2 µM
CC[C@H](C)[C@H](NC(=O)CNC(=O)[C@H](CCCN=C(N)N)NC(=O)[C@H](Cc1ccc(O)cc1)NC(=O)[C@@H](NC(=O)[C@H](CCCN=C(N)N)NC(=O)[C@H](Cc1ccccc1)NC(=O)[C@H](Cc1c[nH]c2ccccc12)NC(=O)[C@@H](N)CCCCN)C(C)C)C(=O)N[C@@H](Cc1ccc(O)cc1)C(N)=O [KWFRVYRGIY],MIC,[31],180 µM
same,MIC,Escherichia coli C25,≥ 720 µM
CC(C)C[C@H](NC(=O)[C@H](CC(C)C)NC(=O)[C@@H]1CCCN1C(=O)[C@H](CCCCN)NC(=O)[C@H](CCCCN)NC(=O)[C@H](CC(C)C)NC(=O)[C@H](CC(C)C)NC(=O)[C@H](CCCCN)NC(=O)[C@H](CCCCN)NC(=O)[C@H](Cc1c[nH]c2ccccc12)NC(=O)[C@@H](N)CCCCN)C(=O)N[C@@H](CCCCN)C(N)=O [KWKKLLKKPLLK],MIC,[32],25 µM
same,MIC,[33],6.25 µM
same,MIC,[22],> 25 µM

# From DBAASP
